Assay results as given in US20260183297A1, “SELECTION OF PATIENTS FOR THE TREATMENT OF FADS1-MEDIATED DISEASES OR DISORDERS USING FADS-1 INHIBITORS” (AMGEN INC., priority 2022, published 2026).
Marks after values point to notes of the source that are not given here.

Assay: Fatty acid concentration and composition of plasma lipid subfractions (GC) of Compound A-treated DIO mice
Assay type: in vivo, mouse
Conditions: DIO mouse plasma, 30 mg/kg, GC
Protocol: FIG. 16(b) provides fatty acid composition of total plasma and each of the 4 plasma lipid subfractions of vehicle treated (WT) and 30 mg/kg Compound A-treated WT DIO mice (WT+A). (a-b) n=3 samples per group (each sample pooled from 2 mice). (a) Data are shown as minimum to maximum. t-test *P<0.05, **P<0.01, ***P<0.001.

[1] = Phospholipids, mean % composition
[2] = Total lipids, mean % composition
[3] = Triglycerides, mean % composition

COc1ccn2c(=O)c(-c3cnn(CC(F)(F)C(F)(F)F)c3)c(C(F)(F)F)nc2c1 [Compound A, 8-methoxy-3-(1-(2,2,3,3,3-pentafluoropropyl)-1H-pyrazol-4-yl)-2-(trifluoromethyl)-4H-pyrido[1,2-a]pyrimidin-4-one]
C16:1n7t composition, Phospholipids [1]: 0.05% | C18:0 composition, Phospholipids [1]: 14.4*** % | C18:1n9 composition, Phospholipids [1]: 12.3** % | C18:1t composition, Phospholipids [1]: 0.18% | C18:2n6 composition, Phospholipids [1]: 19.0% | C18:2n6t composition, Phospholipids [1]: 0.22** % | C18:3n3 composition, Phospholipids [1]: 0.05% | C18:3n6 composition, Phospholipids [1]: 0.2* % | C20:0 composition, Phospholipids [1]: 0.07* % | C20:1n9 composition, Phospholipids [1]: 0.28% | C20:2n6 composition, Phospholipids [1]: 0.43* % | C20:3n6 composition, Phospholipids [1]: 18.2*** % | C20:4n6 composition, Phospholipids [1]: 1.49*** % | C20:5n3 composition, Phospholipids [1]: 0.06* % | C22:0 composition, Phospholipids [1]: 0.08% | C22:4n6 composition, Phospholipids [1]: 0.10*** % | C22:5n3 composition, Phospholipids [1]: 0.61% | C22:5n6 composition, Phospholipids [1]: 0.09** % | C22:6n3 composition, Phospholipids [1]: 3.33*** % | C24:0 composition, Phospholipids [1]: 0.04% | C24:1n9 composition, Phospholipids [1]: 0.16% | C14:0 concentration, Total (Total lipids, mean): 7.7 µg/mL | C16:0 concentration, Total (Total lipids, mean): 635 µg/mL | C16:1n7 concentration, Total (Total lipids, mean): 41.4 µg/mL | C18:0 concentration, Total (Total lipids, mean): 285** μg mL^−1 | C18:1n9 concentration, Total (Total lipids, mean): 478 µg/mL | C18:1t concentration, Total (Total lipids, mean): 3.6 µg/mL | C18:2n6 concentration, Total (Total lipids, mean): 870 µg/mL | C18:2n6t concentration, Total (Total lipids, mean): 6.0 µg/mL | C18:3n3 concentration, Total (Total lipids, mean): 5.9** μg mL^−1 | C18:3n6 concentration, Total (Total lipids, mean): 23.3** μg mL^−1 | C20:0 concentration, Total (Total lipids, mean): 2.3** μg mL^−1 | C20:1n9 concentration, Total (Total lipids, mean): 8.4 µg/mL | C20:3n6 concentration, Total (Total lipids, mean): 465*** μg mL^−1 | C20:4n6 concentration, Total (Total lipids, mean): 92.3** μg mL^−1 | C20:5n3 concentration, Total (Total lipids, mean): 2.7** μg mL^−1 | C22:0 concentration, Total (Total lipids, mean): 3.3** μg mL^−1 | C22:4n6 concentration, Total (Total lipids, mean): 2.1*** μg mL^−1 | C22:5n3 concentration, Total (Total lipids, mean): 2.8*** μg mL^−1 | C22:5n6 concentration, Total (Total lipids, mean): 2.4*** μg mL^−1 | C22:6n3 concentration, Total (Total lipids, mean): 98.5** μg mL^−1 | C24:1n9 concentration, Total (Total lipids, mean): 6.9 µg/mL | Total fatty acids concentration, Total (Total lipids, mean): 3058* μg mL^−1 | C14:0 composition, Total [2]: 0.25% | C16:0 composition, Total [2]: 20.8% | C16:1n7 composition, Total [2]: 1.35% | C16:1n7t composition, Total [2]: 0.1% | C18:0 composition, Total [2]: 9.3% | C18:1n9 composition, Total [2]: 15.7% | C18:1t composition, Total [2]: 0.12% | C18:2n6 composition, Total [2]: 28.5% | C18:2n6t composition, Total [2]: 0.2% | C18:3n3 composition, Total [2]: 0.19% | C18:3n6 composition, Total [2]: 0.76% | C20:0 composition, Total [2]: 0.08% | C20:1n9 composition, Total [2]: 0.27% | C20:2n6 composition, Total [2]: 0.32% | C20:3n6 composition, Total [2]: 15.2% | C20:4n6 composition, Total [2]: 3.01% | C20:5n3 composition, Total [2]: 0.09*** % | C22:0 composition, Total [2]: 0.11% | C22:4n6 composition, Total [2]: 0.07*** % | C22:5n3 composition, Total [2]: 0.09*** % | C22:5n6 composition, Total [2]: 0.08*** % | C22:6n3 composition, Total [2]: 3.22% | C24:0 composition, Total [2]: 0.06% | C24:1n9 composition, Total [2]: 0.23** % | C14:0 concentration, Triglycerides (Triglycerides, mean): 26.7 µg/mL | C16:0 concentration, Triglycerides (Triglycerides, mean): 135 µg/mL | C16:1n7 concentration, Triglycerides (Triglycerides, mean): 6.2 µg/mL | C16:1n7t concentration, Triglycerides (Triglycerides, mean): 0.7 µg/mL | C18:0 concentration, Triglycerides (Triglycerides, mean): 80.4 µg/mL | C18:1n9 concentration, Triglycerides (Triglycerides, mean): 161* μg mL^−1 | C18:1t concentration, Triglycerides (Triglycerides, mean): 6.1 µg/mL | C18:2n6 concentration, Triglycerides (Triglycerides, mean): 42.6** μg mL^−1 | C18:2n6t concentration, Triglycerides (Triglycerides, mean): 9.0 µg/mL | C18:3n3 concentration, Triglycerides (Triglycerides, mean): 1.8 µg/mL | C18:3n6 concentration, Triglycerides (Triglycerides, mean): 0.7 µg/mL | C20:0 concentration, Triglycerides (Triglycerides, mean): 1.6 µg/mL | C20:1n9 concentration, Triglycerides (Triglycerides, mean): 5.6* μg mL^−1 | C20:2n6 concentration, Triglycerides (Triglycerides, mean): 1.7 µg/mL | C20:3n6 concentration, Triglycerides (Triglycerides, mean): 8.3 µg/mL | C20:4n6 concentration, Triglycerides (Triglycerides, mean): 2.5*** μg mL^−1 | C20:5n3 concentration, Triglycerides (Triglycerides, mean): 3.7** μg mL^−1 | C22:0 concentration, Triglycerides (Triglycerides, mean): 3.5 µg/mL | C22:4n6 concentration, Triglycerides (Triglycerides, mean): 2.5* μg mL^−1 | C22:5n3 concentration, Triglycerides (Triglycerides, mean): 49.9* μg mL^−1 | C22:5n6 concentration, Triglycerides (Triglycerides, mean): 2.5 µg/mL | C22:6n3 concentration, Triglycerides (Triglycerides, mean): 0.6** μg mL^−1 | C24:0 concentration, Triglycerides (Triglycerides, mean): 1.2 µg/mL | C24:1n9 concentration, Triglycerides (Triglycerides, mean): 2.3 µg/mL | Total fatty acids concentration, Triglycerides (Triglycerides, mean): 556* μg mL^−1 | C14:0 composition, Triglycerides [3]: 4.77* % | C16:0 composition, Triglycerides [3]: 24.2% | C16:1n7 composition, Triglycerides [3]: 1.10% | C16:1n7t composition, Triglycerides [3]: 0.12% | C18:0 composition, Triglycerides [3]: 14.5% | C18:1n9 composition, Triglycerides [3]: 29.0% | C18:1t composition, Triglycerides [3]: 1.09% | C18:2n6 composition, Triglycerides [3]: 7.68** % | C18:2n6t composition, Triglycerides [3]: 1.64* % | C18:3n3 composition, Triglycerides [3]: 0.33% | C18:3n6 composition, Triglycerides [3]: 0.13% | C20:0 composition, Triglycerides [3]: 0.28% | C20:1n9 composition, Triglycerides [3]: 1.01% | C20:2n6 composition, Triglycerides [3]: 0.31% | C20:3n6 composition, Triglycerides [3]: 1.5% | C20:4n6 composition, Triglycerides [3]: 0.46*** % | C20:5n3 composition, Triglycerides [3]: 0.67% | C22:0 composition, Triglycerides [3]: 0.63% | C22:4n6 composition, Triglycerides [3]: 0.45% | C22:5n3 composition, Triglycerides [3]: 8.98*** % | C22:5n6 composition, Triglycerides [3]: 0.45* % | C22:6n3 composition, Triglycerides [3]: 0.12*** % | C24:0 composition, Triglycerides [3]: 0.23% | C24:1n9 composition, Triglycerides [3]: 0.41% | EPA/AA, Cholesterol ester (Table 5.5) (ratio, Cholesterol ester): 0.039* | EPA/AA, Cholesterol ester (Table 5.6) (ratio, Cholesterol ester): 0.039* | EPA/AA, Free fatty acids (Table 5.5) (ratio, Free fatty acids): 2.94* | EPA/AA, Free fatty acids (Table 5.6) (ratio, Free fatty acids): 2.94* | EPA/AA, Phospholipids (Table 5.5) (ratio, Phospholipids): 0.038* | EPA/AA, Phospholipids (Table 5.6) (ratio, Phospholipids): 0.038 | EPA/AA, Total (Table 5.5) (ratio, Total lipids): 0.030** | EPA/AA, Total (Table 5.6) (ratio, Total lipids): 0.030** | EPA/AA, Triglycerides (Table 5.5) (ratio, Triglycerides): 1.51** | EPA/AA, Triglycerides (Table 5.6) (ratio, Triglycerides): 1.51**
